Entries after “also recorded” stand apart in the source; their conditions may differ. Read-outs that look alike come from different tables or passages of the source.
What was measured:
[1] = cited from earlier work
MMP-1 = biological target: T1, MMP-1 (Homo sapiens, UniProt P03956); test: MMP profiling, IC50 (fluorimetric MMP inhibitor profiling kit); assay type: biochemical
T1 construct: purchased Enzo Life Science, Farmingdale, NY
Description: (§1) After administration of fluorogenic substrate, a velocity of fluorescent increase was measured using excitation/emission=320/405 nm.

MMP-10 = biological target: T2, MMP-10 (Homo sapiens, UniProt P09238); test: as above; assay type: biochemical
T2 construct: purchased Enzo Life Science, Farmingdale, NY
T2 sequence (P09238 99-476): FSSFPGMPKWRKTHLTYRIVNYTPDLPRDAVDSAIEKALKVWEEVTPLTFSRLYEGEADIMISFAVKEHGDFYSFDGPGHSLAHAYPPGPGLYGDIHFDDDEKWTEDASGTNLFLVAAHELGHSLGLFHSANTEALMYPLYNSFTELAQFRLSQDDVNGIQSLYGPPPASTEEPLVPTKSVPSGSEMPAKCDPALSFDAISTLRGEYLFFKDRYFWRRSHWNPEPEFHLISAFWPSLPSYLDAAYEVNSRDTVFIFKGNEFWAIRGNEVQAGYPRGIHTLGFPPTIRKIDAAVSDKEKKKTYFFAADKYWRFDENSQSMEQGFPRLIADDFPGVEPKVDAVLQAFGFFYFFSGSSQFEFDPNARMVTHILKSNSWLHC
Description: as §1

MMP-12 [2] = biological target: T3, MMP-12 (Homo sapiens, UniProt P39900); test: as above; assay type: biochemical
T3 construct: purchased Enzo Life Science, Farmingdale, NY
T3 sequence (P39900 106-470): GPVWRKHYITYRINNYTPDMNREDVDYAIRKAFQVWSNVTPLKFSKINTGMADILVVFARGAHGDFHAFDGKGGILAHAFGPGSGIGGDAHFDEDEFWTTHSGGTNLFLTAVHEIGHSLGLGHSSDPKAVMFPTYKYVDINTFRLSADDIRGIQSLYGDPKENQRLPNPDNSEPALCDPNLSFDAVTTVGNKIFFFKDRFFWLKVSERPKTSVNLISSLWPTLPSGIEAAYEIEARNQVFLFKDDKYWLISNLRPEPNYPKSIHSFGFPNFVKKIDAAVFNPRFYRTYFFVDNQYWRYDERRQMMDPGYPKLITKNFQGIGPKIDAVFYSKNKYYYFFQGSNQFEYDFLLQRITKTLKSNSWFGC
Description: as §1

MMP-13 = biological target: T4, MMP-13 (Homo sapiens, UniProt P45452); test: as above; assay type: biochemical
T4 construct: purchased Enzo Life Science, Farmingdale, NY
Description: as §1

MMP-14 [3] = biological target: T5, MMP-14 (Homo sapiens, UniProt P50281); test: as above; assay type: biochemical
T5 construct: purchased Enzo Life Science, Farmingdale, NY
Description: as §1

MMP-2 = biological target: T6, MMP-2 (Homo sapiens, UniProt P08253); test: as above; assay type: biochemical
T6 construct: purchased Enzo Life Science, Farmingdale, NY
T6 sequence (P08253 110-660): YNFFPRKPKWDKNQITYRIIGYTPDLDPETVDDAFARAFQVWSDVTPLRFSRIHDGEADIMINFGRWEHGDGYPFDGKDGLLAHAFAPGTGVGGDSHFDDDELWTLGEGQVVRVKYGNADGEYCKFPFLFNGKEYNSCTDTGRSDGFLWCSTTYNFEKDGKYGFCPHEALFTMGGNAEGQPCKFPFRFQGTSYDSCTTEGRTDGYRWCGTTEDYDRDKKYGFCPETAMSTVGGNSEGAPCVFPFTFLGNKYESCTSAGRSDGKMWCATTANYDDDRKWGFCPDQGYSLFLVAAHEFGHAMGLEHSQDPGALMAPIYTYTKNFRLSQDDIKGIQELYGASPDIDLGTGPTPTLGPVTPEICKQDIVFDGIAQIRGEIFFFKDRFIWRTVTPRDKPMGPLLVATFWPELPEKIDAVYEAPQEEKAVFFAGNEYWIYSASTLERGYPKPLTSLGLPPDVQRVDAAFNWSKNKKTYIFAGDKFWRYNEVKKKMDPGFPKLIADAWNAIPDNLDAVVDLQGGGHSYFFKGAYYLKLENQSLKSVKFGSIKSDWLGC
Description: as §1

MMP-3 = biological target: T7, MMP-3 (Homo sapiens, UniProt P08254); test: as above; assay type: biochemical
T7 construct: purchased Enzo Life Science, Farmingdale, NY
T7 sequence (P08254 100-477): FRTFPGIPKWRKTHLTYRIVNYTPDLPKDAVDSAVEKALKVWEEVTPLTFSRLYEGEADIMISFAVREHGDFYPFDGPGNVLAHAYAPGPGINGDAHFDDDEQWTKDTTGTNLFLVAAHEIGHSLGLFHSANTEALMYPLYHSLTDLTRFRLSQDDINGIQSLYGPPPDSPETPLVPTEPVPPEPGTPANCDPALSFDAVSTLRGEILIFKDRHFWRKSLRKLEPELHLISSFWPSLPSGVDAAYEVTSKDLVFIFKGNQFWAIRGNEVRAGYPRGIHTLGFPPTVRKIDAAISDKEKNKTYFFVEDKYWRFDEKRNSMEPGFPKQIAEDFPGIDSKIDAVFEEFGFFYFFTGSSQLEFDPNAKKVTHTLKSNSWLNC
Description: as §1

MMP-7 = biological target: T8, MMP-7 (Homo sapiens, UniProt P09237); test: as above; assay type: biochemical
T8 construct: purchased Enzo Life Science, Farmingdale, NY
T8 sequence (P09237 95-267): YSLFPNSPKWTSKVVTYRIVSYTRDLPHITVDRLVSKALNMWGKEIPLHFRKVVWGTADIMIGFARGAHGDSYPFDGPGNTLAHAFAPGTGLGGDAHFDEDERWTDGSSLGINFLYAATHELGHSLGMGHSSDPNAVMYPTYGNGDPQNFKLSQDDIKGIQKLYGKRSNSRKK
Description: as §1

MMP-8 = biological target: T9, MMP-8 (Homo sapiens, UniProt P22894); test: as above; assay type: biochemical
T9 construct: purchased Enzo Life Science, Farmingdale, NY
T9 sequence (P22894 101-467): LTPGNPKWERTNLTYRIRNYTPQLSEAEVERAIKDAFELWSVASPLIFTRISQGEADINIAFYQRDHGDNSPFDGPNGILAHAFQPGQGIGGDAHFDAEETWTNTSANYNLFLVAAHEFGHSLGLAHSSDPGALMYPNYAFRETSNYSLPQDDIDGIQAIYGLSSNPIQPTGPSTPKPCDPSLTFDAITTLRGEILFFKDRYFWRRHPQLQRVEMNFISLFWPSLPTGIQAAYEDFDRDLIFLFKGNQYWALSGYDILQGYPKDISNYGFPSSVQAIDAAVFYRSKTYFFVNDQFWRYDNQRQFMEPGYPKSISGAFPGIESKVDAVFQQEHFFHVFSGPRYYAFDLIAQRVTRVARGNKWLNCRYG
Description: as §1

MMP-9 [4] = biological target: T10, MMP-9 (Homo sapiens, UniProt P14780); test: as above; assay type: biochemical
T10 construct: purchased Enzo Life Science, Farmingdale, NY
T10 sequence (P14780 94-707): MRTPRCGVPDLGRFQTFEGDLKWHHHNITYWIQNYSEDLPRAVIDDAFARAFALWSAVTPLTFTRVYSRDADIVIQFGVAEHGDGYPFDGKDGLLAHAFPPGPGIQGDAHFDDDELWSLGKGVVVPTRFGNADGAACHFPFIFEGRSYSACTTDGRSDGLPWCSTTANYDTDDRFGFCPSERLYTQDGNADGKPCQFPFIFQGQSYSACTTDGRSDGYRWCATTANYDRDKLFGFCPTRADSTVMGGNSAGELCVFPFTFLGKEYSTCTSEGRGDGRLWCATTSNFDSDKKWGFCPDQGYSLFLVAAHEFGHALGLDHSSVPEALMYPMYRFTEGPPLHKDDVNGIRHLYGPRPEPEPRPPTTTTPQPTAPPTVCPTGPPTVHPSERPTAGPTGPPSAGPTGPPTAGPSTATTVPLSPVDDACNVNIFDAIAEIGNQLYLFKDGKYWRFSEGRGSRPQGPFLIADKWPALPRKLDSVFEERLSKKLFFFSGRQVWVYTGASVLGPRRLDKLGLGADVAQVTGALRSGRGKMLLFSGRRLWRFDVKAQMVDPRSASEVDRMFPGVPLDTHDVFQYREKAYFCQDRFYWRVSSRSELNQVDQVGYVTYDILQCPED
Description: as §1

MMPs [5] = system: T11, MMPs; test: MMP profiling, summary over the whole MMP panel; assay type: biochemical; details: MMP-1 to MMP-14 of Table 1; read-out: IC50 against each MMP enzymatic activity (span over the panel)
T11 construct: rows headed: IC50 against each MMP enzymatic activity (span over the panel)
Description: as §1
(§2) Since MMP-9 plays a central role in pancreatic cancer invasion, MMP-9 mRNA and protein levels were examined in both cell lines.

MMPs [6] = system: T12, MMPs; test: MMP profiling, summary over the whole MMP panel; assay type: biochemical
T12 construct: rows headed: anti-MMP activity, IC50 range
Description: as §1, §2

[7] = system: pancreatic cancer cell lines; test: Matrigel invasion assay; assay type: cell-based, human
Description: Matrigel invasion assay: Cell invasion was assayed in BD BioCoat Matrigel invasion chambers (BD Biosciences; 24 wells, 8 μm pore size) as described previously (26). […] Non-invaded cells were removed from the upper surface of the membrane with a cotton swab, and cells on the lower surface of the membrane were fixed and stained with H&E. Three random fields per chamber were counted. Data were shown as mean±S.D. of triplicate determinations. […] For this assay, ten different pancreatic cancer cell lines in a matrigel invasion chamber were used.

[8] = system: pancreatic cancer cell lines; test: Cell migration assay (wound healing); assay type: cell-based, human
Description: Cell Migration Assay: Cell migration assay is a classical wound healing assay (25). For this assay, cells were cultured in 10 cm petri dishes until they were completely confluent. […] Five random fields were selected and pictures were taken using an inverted microscope. The average area (mm 2) of the gap between the cell layers was calculated using IPLab imaging software (BD Biosciences-Bioimaging, Rockville, MD). […] For the migration assay, a wound healing assay was used (described above in Example 1).

MMPs [9] = test: MMP activity in pancreatic cancer cell lines (fluorogenic peptide substrate); assay type: cell-based, human; details: two representative cell lines, concentration-dependent
Description: (§3) Measurement of MMP activity: MMPs activity was measured by Mca-KPLGL-Dpa-AR-NH2 Fluorogenic Peptide Substrate (R&D systems, Emeryville, CA). Total cell protein from each pancreatic cancer cell line was collected using lysis buffer (containing 50 mM Tris-HCl, 10 mM CaCl2, 0.05% Brij35 and 0.25% Triton-X) without an MMP inhibitor. Substrate and 10 μg of total cell protein in the buffer were mixed in a black-wall 96-well plate. After 1 hour incubation, fluorescence units were determined using excitation/emission=320/405 nm.

MMP-9 [10] = test: qRT-PCR of MMP-9 mRNA in pancreatic cancer cell lines; assay type: cell-based, human; details: highest concentration (5 mM), both cell lines
Description: (§4) Quantitative Reverse transcription-PCR (qRT-PCR): qRT-PCR was performed as described previously using QuantiTect SYBR Green PCR Kits (QIAGEN, Valencia, CA) (28). Gene specific primers for human MMP-9, MMP-12, MMP-14 and I3-actin were either purchased from QIAGEN or synthesized at the CBER core facility. Gene expression was normalized to β-actin before the fold change in gene expression was determined.
as §2

MMP-9 [11] = test: ELISA of MMP-9 protein in pancreatic cancer cell lines; assay type: cell-based, human; details: highest concentration (5 mM), both cell lines
Description: Enzyme-Linked ImmunoSorbent Assay (ELISA): The NIMP-9 protein level was determined using Human total MMP-9 DuoSet kit (R&D systems, Emeryville, CA) following the manufacturer's instruction. Ten microgram of total protein was aliquoted in each well and the MMP-9 concentration was determined by the colorimetric method. […] Since MMP-9 plays a central role in pancreatic cancer invasion, MMP-9 mRNA and protein levels were examined in both cell lines.

MMP-12 [12] = test: qRT-PCR of MMP-12 mRNA in pancreatic cancer cell lines; assay type: cell-based, human; details: highest concentration, in vitro
Description: as §4, §2

MMP-14 [13] = test: qRT-PCR of MMP-14 mRNA in pancreatic cancer cell lines; assay type: cell-based, human; details: highest concentration, in vitro
Description: as §4, §2

MMP-9 [14] = test: Gelatin gel zymography of cell lysates; assay type: cell-based, human; details: cell lines in vitro, dose dependent
Description: (§5) Briefly, 50 μg of total protein was electrophoresed on 10% SDS-PAGE containing 0.1% gelatin as substrate. After washing with 1% Triton X-100 in 50 mM Tris/HCl, pH 7.5 for 1 hr to remove SDS, the gels were incubated overnight at 37° C. in 50 mM Tris/HCl, pH 7.5, containing 150 mM NaCl, 10 mM CaCl2 and 0.1% Triton X-100, prior to staining with simply blue safe stain. The gels were washed with deionized water at room temperature. […] Relevant band intensities were quantified by scanning densitometric analysis and normalized to cell number.
as §2

H5766T tumor = test: Orthotopic pancreatic cancer mouse model: metastasis, ascites, survival; assay type: in vivo, mice
Description: (§6) Measurement of metastasis, survival and body weight of animals implanted with orthotopic pancreatic cancer in mouse model: Female nude nu/nu mice between ages 5 and 6 weeks were maintained in a barrier facility in HEPA-filtered rack. All animal studies were conducted under approved protocol #2000-06 by the CBER Institutional Animal Care and Use Committee in accordance with the principles and procedures outlined in the NIH Guideline for the Care and Use of Laboratory Animals. For orthotopic tumor cell injection, the pancreas was carefully exposed, and 2.0×10^6 of MIA-PaCa2 and H5766T cells were injected into the organ. The pancreas was then returned to the peritoneal cavity, and the abdominal wall and skin were closed with skin clips (29, 30). […] At day 30, mice were sacrificed and the number of metastatic nodules visible by naked eye and whose sizes were >5 mm in diameter counted. The total weight of primary tumor and metastatic nodules were also measured. Pictures were taken immediately after sacrificing the animals. Additionally, mouse survival time was monitored in an independent experiment. Mice were sacrificed when they had severe ascites or cachexia.
(§7) At day 30, the number and weight of the primary tumor and metastatic nodules were measured. […] The survival of mice among different treatment groups was also determined.

MIA-PaCa2 tumor = test: as above; assay type: in vivo, mice
Description: as §6, §7

[15] = General condition, body weight, serum enzymes and histology of treated tumor-bearing mice; assay type: in vivo
Description: as §6
Measurement of enzymes in mouse serum: Mouse blood was collected from the tail vein. Serum levels of alanine aminotransferase (ALT), creatine kinase (CK), aldolase and creatinine (Cr) were measured using different kits obtained from Pointe Scientific, Inc. (Canton, MI) and Caldon Biotech, Inc. (Vista, Ca), following the manufacturer's instruction.
The general condition and body weight of mice throughout the experimental period was also monitored. […] Similarly, there was no alteration in serum enzymes representing liver function (ALT) or muscle damage (Aldolase) nor evidence of skeletal muscle damage or kidney function (creatinine kinase and creatinine) in the cysteamine-treated groups.

MMPs [16] = test: MMP activity in primary orthotopic tumors; assay type: in vivo, mice; details: H5766T and MIA-PaCa2 tumors, 100 and 250 mg/Kg, day 30
Description: as §3

MMP-9 [17] = test: qRT-PCR of MMP-9 mRNA in primary orthotopic tumors; assay type: in vivo, mice; details: tumors harvested day 30
Description: as §4

MMP-9 [18] = test: ELISA of MMP-9 protein in primary orthotopic tumors; assay type: in vivo, mice; details: tumors harvested day 30
Description: Enzyme-Linked ImmunoSorbent Assay (ELISA): The NIMP-9 protein level was determined using Human total MMP-9 DuoSet kit (R&D systems, Emeryville, CA) following the manufacturer's instruction. Ten microgram of total protein was aliquoted in each well and the MMP-9 concentration was determined by the colorimetric method.

MMP-9 [19] = test: Zymography for MMP-9 in primary orthotopic tumors; assay type: in vivo, mice; details: tumors harvested day 30
Description: as §5

[20] = cited from earlier work; remark: listed apart in the source
intracellular cystine = details: cited from earlier work
[21] = in vivo; cited from earlier work
MMPs [22] = details: not tested in Table 1; cited from earlier work
[23] = delivery to the small intestine (WO 2007/089670)

T1 sequence (P03956 100-469): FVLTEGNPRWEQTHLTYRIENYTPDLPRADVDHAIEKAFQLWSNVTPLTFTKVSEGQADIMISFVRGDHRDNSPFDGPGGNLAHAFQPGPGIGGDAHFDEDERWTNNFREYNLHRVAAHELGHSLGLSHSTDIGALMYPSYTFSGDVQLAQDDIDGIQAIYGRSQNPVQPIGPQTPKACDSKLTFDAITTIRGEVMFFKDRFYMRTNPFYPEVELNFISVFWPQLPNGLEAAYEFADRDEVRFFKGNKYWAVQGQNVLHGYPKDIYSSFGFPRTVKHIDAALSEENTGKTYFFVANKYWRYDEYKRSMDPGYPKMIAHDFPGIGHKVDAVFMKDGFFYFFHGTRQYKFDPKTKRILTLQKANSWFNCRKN

CNC(=O)[C@H](Cc1ccccc1)NC(=O)[C@H](CC(C)C)[C@H](CSc1cccs1)C(=O)NO [Batimastat]
oral bioavailability ([1]; in vivo, po): poor oral bioavailability

NCCS [Cysteamine]
IC50 (MMP-1): 290 µM | IC50 (MMP-10): 310 µM | IC50 (MMP-12 [2]): 60 µM | IC50 (MMP-13): 460 µM | IC50 (MMP-14 [3]): 91 µM | IC50 (MMP-2): 38 µM | IC50 (MMP-3): 330 µM | IC50 (MMP-7): 40 µM | IC50 (MMP-8): 240 µM | IC50 (MMP-9 [4]): 200 µM | IC50 (MMPs [5]): 38 to 460 µM | anti-MMP activity, IC50 range (MMPs [6]): high μM range | lowest concentration that significantly inhibited cell invasion ([7]; all ten pancreatic cancer cell lines, 24 hours): 0.05 mM | concentration that sufficiently inhibited cancer cell invasion in vitro ([7]; discussion): 50 µM | concentration at which cell migration was significantly inhibited ([8]; all ten cell lines, 24 hours): ≥ 0.05 mM | concentration that sufficiently inhibited cancer cell migration in vitro ([8]; discussion): 50 µM | MMP activity in pancreatic cancer cell lines (MMPs [9]): inhibited | mRNA level of MMP-9 (MMP-9 [10]): modestly increased; also recorded: modestly to moderately upregulated | protein level of MMP-9 (MMP-9 [11]): modestly increased; also recorded: modestly to moderately upregulated | mRNA of MMP-12 (MMP-12 [12]): modest increase; also recorded: modestly upregulated | mRNA of MMP-14 (MMP-14 [13]): modest increase; also recorded: modestly upregulated | zymographic gelatin hydrolyzing activity, pro and active MMP-9 (MMP-9 [14]): decreased significantly; also recorded: dose dependent decrease | mouse survival time (H5766T tumor; 100 mg/kg/day, FIG. 1A): significantly prolonged | decrease in number of metastases (H5766T tumor; 250 mg/kg/day s.c., day 30): ~90% | number of metastases (H5766T tumor; 250 mg/kg/day s.c., day 30 (control 34)): 3.6 | ascites in peritoneal cavity (H5766T tumor; 100 and 250 mg/kg/day): no mice developed ascites | number of metastatic nodules (H5766T tumor; dose-dependent, day 30): significantly decreased | size and weight of the primary tumor vs control (H5766T tumor; s.c. twice daily from day 4, day 30): did not show any difference | mouse survival time (MIA-PaCa2 tumor; MIA-PaCa2, 100 mg/kg/day, FIG. 1B): significantly prolonged | ascites in peritoneal cavity (MIA-PaCa2 tumor; MIA-PaCa2, 100 and 250 mg/kg/day): no mice developed ascites | number of metastatic nodules (MIA-PaCa2 tumor; MIA-PaCa2, dose-dependent, day 30): significantly decreased | decrease in total weight of metastatic nodules (MIA-PaCa2 tumor; MIA-PaCa2, highest dose (250 mg/kg/day), day 30): ~90% | size and weight of the primary tumor vs control (MIA-PaCa2 tumor; MIA-PaCa2, s.c. twice daily from day 4, day 30): did not show any difference | dose tolerated without visible, biochemical or histological evidence of toxicity ([15]; mice): up to 250 mg/kg/day | organ toxicity by histological examination ([15]; mouse, in vivo): no organ toxicity | serum ALT (liver function) ([15]; mouse, in vivo): no alteration | serum Aldolase (muscle damage) ([15]; mouse, in vivo): no alteration | serum creatinine (kidney function) ([15]; mouse, in vivo): no alteration | serum creatinine kinase ([15]; mouse, in vivo): no alteration | adverse effects (general appearance, body weight, muscle damage, serum enzymes, serum creatinine) ([15]; mouse, in vivo, 250 mg/kg/day): no adverse effects | MMPs activity in primary orthotopic tumors (MMPs [16]): decreased | mRNA level of MMP-9 in primary tumors (MMP-9 [17]): did not affect | protein level of MMP-9 in primary tumors (MMP-9 [18]): did not affect | gelatinase activity, zymography for MMP-9, primary tumors (MMP-9 [19]): dose dependent decrease | AUC [20, 23]: increases AUC | cysteamine plasma level ([20]; oral, every 6 hours, 60 to 90 mg/kg of body weight per day): ≤ 50 µM | time to decrease in leukocyte cystine (intracellular cystine; [23]): within an hour | depletion of intracellular cystine (intracellular cystine; taken regularly, circulating white blood cells): up to 90% | adverse effects in subjects [21]: only gastrointestinal symptoms

CNC(=O)[C@@H](NC(=O)[C@H](CC(C)C)[C@H](O)C(=O)NO)C(C)(C)C [marimastat]
anti-MMP activity, IC50 range (MMPs [22]): nM to low μM | clinical toxicity ([1]; higher dosage, patients with breast cancer metastasis): high musculoskeletal toxicities

From US12667547B2 (MESHABERASE, LLC, priority 2013, dated 2026)
